Assays:
[1] = biological target: rAβ42 (Aβ1-42) aggregation (Homo sapiens, UniProt P05067); test: Thioflavin T assay of Aβ42 aggregation; type: biochemical; details: for anti-aggregation activity, result in words: Aβ1-42, 48 h, thioflavin T, 1, 3, 10, 30 μM
[2] = system: IL-6 production by peritoneal macrophages stimulated with LPS; test: IL-6 secretion by LPS-stimulated murine peritoneal macrophages; type: cell-based, C57Bl/6 mice; details: for inhibition of IL-6 at 30 μM: 30 μM compound, LPS 10 ng/mL; for anti-inflammatory activity (IL-6 secretion), result in words: LPS-stimulated macrophages, 1, 3, 10, 30 μM
peritoneal macrophages = test: MTT cytotoxicity assay on peritoneal macrophages; type: cell-based, C57Bl/6 mice; details: for cell viability (MTT): at the concentrations tested (1, 3, 10, 30 μM)

rAβ42 (Aβ1-42) aggregation, sequence (P05067 672-713 limits assumed): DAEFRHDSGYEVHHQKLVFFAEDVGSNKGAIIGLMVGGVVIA

Row | IC50 [1] | Compound | anti-aggregation activity, result in words [1] | inhibition of IL-6 at 30 μM [2] | anti-inflammatory activity (IL-6 secretion), result in words [2] | cytotoxicity (MTT) at 30 μM (peritoneal macrophages; 30 μM) | cell viability (MTT) (peritoneal macrophages)
1 | – | C#CCOc1ccc(/C=C/C(=O)CC(=O)/C=C/c2ccc(OCC#C)c(OC)c2)cc1OC [Compound 2, (1E,6E)-1,7-bis(3-methoxy-4-(prop-2-yn-1-yloxy)phenyl)hepta-1,6-diene-3,5-dione] | did not present anti-aggregation activity | – | – | – | –
2 | – | COc1cc(/C=C/C(O)=C/C(=O)/C=C/c2ccc(OCc3ccccc3)c(OC)c2)ccc1O [Compound 3, (1E, 4Z, 6E)-1-(4-(benzyloxy)-3-methoxyphenyl)-5-hydroxy-7-(4-hydroxy-3-metho-xyphenyl)hepta-1,4,6-trien-3-one] | inhibited the aggregation of Aβ in a concentration-dependent manner | – | – | – | –
3 | 1320 ± 700 nM | COc1cc(/C=C/C(O)=C/C(=O)/C=C/c2ccc(OC(C)=O)c(OC)c2)ccc1O [Compound 4, 4-((1E,4Z,6E)-5-hydroxy-7-(4-hydroxy-3-methoxyphenyl)-3-oxohepta-1,4,6-trien-1-yl)-2-methoxyphenyl acetate] | inhibited the aggregation of Aβ in a concentration-dependent manner | – | – | – | –
4 | – | C=CCOC(=O)CCC(=O)Oc1ccc(/C=C/C(=O)/C=C(O)/C=C/c2ccc(OC(=O)CCC(=O)OCC=C)c(OC)c2)cc1OC [Compound 5, diallyl O,O′-(((1E,3Z,6E)-3-hydroxy-5-oxohepta-1,3,6-triene-1,7-diyl)bis(2-methoxy-4,1-phenylene)) disuccinate] | inhibited the aggregation of Aβ in a concentration-dependent manner | complete inhibition | mid-to-strong inhibition | exhibited cytotoxicity | –
5 | 1770 ± 900 nM | C=CCOC(=O)CCC(=O)Oc1ccc(/C=C/C(=O)/C=C(O)/C=C/c2ccc(O)c(OC)c2)cc1OC [Compound 6, allyl (4-((1E,4Z,6E)-5-hydroxy-7-(4-hydroxy-3-methoxyphenyl)-3-oxohepta-1,4,6-trien-1-yl)-2-methoxyphenyl) succinate] | inhibited the aggregation of Aβ in a concentration-dependent manner | complete inhibition | mid-to-strong inhibition | – | did not affect the cell viability
6 | – | COc1cc(/C=C/C(=O)/C=C(O)/C=C/c2ccc(OC(=O)CCC(=O)OCc3ccccc3)c(OC)c2)ccc1OC(=O)CCC(=O)OCc1ccccc1 [Compound 7, dibenzyl O,O′-(((1E,3Z,6E)-3-hydroxy-5-oxohepta-1,3,6triene-1,7-diyl)bis(2-methoxy-4,1-phenylene)) disuccinate] | – | – | did not show any anti-inflammatory activity | – | –
7 | – | COc1cc(/C=C/C(O)=C/C(=O)/C=C/c2ccc(OC(=O)CCC(=O)OCc3ccccc3)c(OC)c2)ccc1O [Compound 8, benzyl (4-((1E,4Z,6E)-5-hydroxy-7-(4-hydroxy-3-methoxyphenyl)-3-oxohepta-1,4,6-trien-1-yl)-2-methoxyphenyl) succinate] | did not present anti-aggregation activity | complete inhibition | mid-to-strong inhibition | – | did not affect the cell viability
8 | – | COc1cc(C=CC(=O)C=C(O)C=Cc2ccc(OC(=O)CCC(=O)OC3CCCC3)c(OC)c2)ccc1OC(=O)CCC(=O)OC1CCCC1 [Compound 9, dicyclopentyl O,O′-(((1E,3Z,6E)-3-hydroxy-5-oxohepta-1,3,6-triene-1,7-diyl)bis(2-methoxy-4,1-phenylene)) disuccinate] | did not present anti-aggregation activity | – | did not show any anti-inflammatory activity | – | –
9 | 2040 ± 700 nM | COc1cc(/C=C/C(O)=C/C(=O)/C=C/c2ccc(OC(=O)CCC(=O)OC3CCCC3)c(OC)c2)ccc1O [Compound 10, cyclopentyl (4-((1E,4Z,6E)-5-hydroxy-7-(4-hydroxy-3-methoxyphenyl)-3-oxohepta-1,4,6-trien-1-yl)-2-methoxyphenyl) succinate] | inhibited the aggregation of Aβ in a concentration-dependent manner | complete inhibition | mid-to-strong inhibition | – | did not affect the cell viability

From paper PMC5737775 (Journal of Alzheimer's disease : JAD, 2017)
